For test [1], the target named is human glucagon receptor (GCGR) (Homo sapiens (Human), UniProt P47871). Kind of test: Inhibition of 125I-glucagon binding to membranes from HEK293 cells expressing the human glucagon receptor. As to conditions: membranes of hGluc-1 HEK cells, 125I-glucagon 0.3 nM, 2 hours room temperature; IC50 converted to Ki; average if tested more than once. The procedure: Inhibition ^125I-Glucagon Binding to Membranes from HEK293 Cells Expressing the Human Glucagon Receptor (GCGR)
Full-length human GCGR (Accession Number: NM000160) subcloned into pcDNA3.1 was stably transfected into HEK293 cells (hGluc-1 HEK) and maintained under G418 selection (500 μg/mL). Cell cultures were maintained in DMEM/F12 media supplemented with 10% FBS and 1% GlutaMax. Membranes were prepared from these cells as follows: cells were harvested from T225 flasks and re-suspended in hypotonic lysis buffer, 50 mM HEPES pH 7.4 supplemented with Complete Protease inhibitors (Boehringer Mannheim, Indianapolis, Ind.). Cells were dounced 20 times on ice and spun at 700×g to remove nuclei and unlysed cells. The resulting pellet was re-suspended in hypotonic lysis buffer and the above step was repeated. Supernatants from the low speed centrifugation were combined and subsequently spun at 100K×g for 1 hr at 4° C. and the resulting pellet was re-suspended in buffer containing 50 mM HEPES pH 7.4 and 10% sucrose and the protein concentration was adjusted at 1 mg/mL as determined in the BCA assay. Membranes were aliquoted and stored at −80° C. The binding assay was performed by a filtration method in a 384 well format. Membranes at a final protein concentration of 6 μg/well were incubated with ^125I-glucagon at 0.3 nM and in the presence of compound for 2 hours at room temperature in a total reaction volume of 40 μL per well. Assay buffer consisted of 50 mM HEPES, pH 7.4, 5 mM MgCl2, 1 mM CaCl2 and 0.2% BSA. 30 μL of the reaction was then transferred to PEI treated filter plates and followed by filter aspiration. Plates were then washed 5× and allowed to dry at room temperature overnight. The next day the bottom of the plate was covered with seal tape and scintillant was added. Total counts retained by the filters were quantified with a Top Count instrument. IC50's were generated by using a non-linear regression macro driven in Excel and converted to K's.

Test [2] addresses human GCGR (Homo sapiens (Human), UniProt P47871). As to the kind of experiment: Cellular functional assay, cAMP readout (glucagon-stimulated cAMP in HEK293 cells expressing human GCGR). It is filed as cell-based. Particulars: hGluc-1 HEK cells, LANCE TR-FRET, IC50 converted to Ki, average if tested more than once. The procedure:
IC50 Values in Cellular Functional Assays: cAMP Readout
Full-length human GCGR (Accession Number: NM000160) subcloned into pcDNA3.1 was stably transfected into HEK293 cells (hGluc-1 HEK) and maintained under G418 selection (500 μg/mL). Cell cultures were maintained in DMEM/F12 media supplemented with 10% FBS and 1% GlutaMax. Glucagon stimulated cAMP was quantified using LANCE technology as per manufacturer instructions. On the day of the experiment, spent media was removed and cells were washed with Hank's Buffered Saline solution (HBSS) and cells were harvested with non-enzymatic cell dissociation solution, then washed once with HBSS. Cells were re-suspended in stimulation buffer at a concentration of 0.83×10^6 cells/ml and cAMP detection antibody was added. 6 μl/well of this solution was then dispensed in a 384 well plate (cell density 5000 cells/well). Test compound was serially diluted in DMSO and 50 nl were dispensed on top of the cell solution and allowed to incubate for 30 minutes. 6 μl of a 2× glucagon solution (final concentration in assay […]) was then added and the reaction was terminated after 5 minutes with the addition of detection mix. The mixture was incubated, protected from light for 1.5 h. cAMP levels were quantified by TR-FRET in an EnVision instrument against a known standard. IC50's were generated by using a non-linear regression macro driven in Excel and converted to K, values.
Background: Time-resolved FRET reads energy transfer from a long-lived donor to a nearby acceptor.

pKi: −log10 of the molar value.

human GCGR, sequence (P47871 26-477): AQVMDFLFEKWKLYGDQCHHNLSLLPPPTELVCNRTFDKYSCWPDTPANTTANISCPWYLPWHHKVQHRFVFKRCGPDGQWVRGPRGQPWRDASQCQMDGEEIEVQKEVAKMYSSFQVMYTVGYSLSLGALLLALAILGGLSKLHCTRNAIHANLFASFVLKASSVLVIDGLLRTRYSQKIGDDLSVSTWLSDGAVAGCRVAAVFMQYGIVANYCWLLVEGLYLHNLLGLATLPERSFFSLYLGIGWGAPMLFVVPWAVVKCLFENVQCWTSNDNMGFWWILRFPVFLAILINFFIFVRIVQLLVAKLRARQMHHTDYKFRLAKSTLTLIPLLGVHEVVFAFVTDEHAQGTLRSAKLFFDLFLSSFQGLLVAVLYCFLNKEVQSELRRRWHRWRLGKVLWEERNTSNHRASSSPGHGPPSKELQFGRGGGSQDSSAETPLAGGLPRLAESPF
human glucagon receptor (GCGR), sequence (P47871 26-477): as above

Broadly, the pKi is −log10 of the Ki, conventionally taken in molar units. For the compound `O=C(O)CCNC(=O)c1ccc(-c2cc(Cl)ccc2CNc2ccc(-c3ccc(F)cc3F)c(F)c2)cn1` [Compound 89, 3-(5-(5-chloro-2-(((2,2′,4′-trifluoro-[1,1′-biphenyl]-4-yl)amino)methyl)phenyl)picolinamido)propanoic acid], the pKi in test [1] is 7.22; in test [2] it was 6.26.

Regarding `O=C(O)CCNC(=O)c1ccc(-c2cc(C(F)(F)F)ccc2CNc2ccc(-c3ccc(Cl)cc3)c(C(F)(F)F)c2)cn1` [Compound 123, 3-(5-(2-(((4′-chloro-2-(trifluoromethyl)-[1,1′-biphenyl]-4-yl)amino)methyl)-5-(trifluoromethyl)phenyl)picolinamido)propanoic acid], in test [2], the pKi is 6.96.

As for `COc1ccc(CNc2ccc(-c3ccc(C(C)(C)C)cc3)cc2)c(-c2ccc(C(=O)NCCC(=O)O)nc2)c1` [Compound 49, 3-(5-(2-(((4′-(tert-butyl)-[1,1′-biphenyl]-4-yl)amino)methyl)-5-methoxyphenyl)picolinamido)propanoic acid], the pKi in test [2] was less than 4.70.

In test [2], `Cc1cc(C(F)(F)F)ccc1-c1ccc(NCc2c(-c3ccc(C(=O)NCCC(=O)O)nc3)cc(C(F)(F)F)cc2C(C)C)cc1Cl` [Compound 167] gave a pKi of 7.97.

`O=C(O)CCNC(=O)c1ccc(-c2cc(C(F)(F)F)ccc2CNc2ccc(-c3ccc(Cl)cc3Cl)c(C(F)(F)F)c2)cn1` [Compound 122, 3-(5-(2-(((2′,4′-dichloro-2-(trifluoromethyl)-[1,1′-biphenyl]-4-yl)amino)methyl)-5-(trifluoromethyl)phenyl)picolinamido)propanoic acid] had a pKi in test [2] of 7.07.

In test [2], `Cc1cc(C(F)(F)F)ccc1-c1ccc(NCc2c(-c3ccc(C(=O)NCCC(=O)O)nc3)cc(C(F)(F)F)cc2C(F)(F)F)cc1` [Compound 83, 3-(5-(2-(((2′-methyl-4′-(trifluoromethyl)-[1,1′-biphenyl]-4-yl)amino)methyl)-3,5-bis(trifluoromethyl)phenyl)picolinamido)propanoic acid] had a pKi of 7.85.

In the case of `O=C(O)CCNC(=O)c1ccc(-c2cc(C(F)(F)F)cc(C(F)(F)F)c2CNc2ccc(-c3ccc(Cl)cc3Cl)cc2)cn1` [Compound 87, 3-(5-(2-(((2′,4′-dichloro-[1,1′-biphenyl]-4-yl)amino)methyl)-3,5-bis(trifluoromethyl)phenyl)picolinamido)propanoic acid], the pKi in test [2] is 7.76.

`O=C(O)CCNC(=O)c1ccc(-c2cc(C(F)(F)F)cc(C(F)(F)F)c2CNc2ccc(-c3ccc(Cl)cc3)c(Cl)c2)cn1` [Compound 76, 3-(5-(2-(((2,4′-dichloro-[1,1′-biphenyl]-4-yl)amino)methyl)-3,5-bis(trifluoromethyl)phenyl)picolinamido)propanoic acid] had a pKi in test [2] of 7.84.

In test [2], `CC(C)(C)c1ccc(-c2ccc(NCc3ccc(C(F)(F)F)cc3-c3ccc(C(=O)NCCC(=O)O)nc3)cc2C(F)(F)F)cc1` [Compound 124, 3-(5-(2-(((4′-(tert-butyl)-2-(trifluoromethyl)-[1,1′-biphenyl]-4-yl)amino)methyl)-5-(trifluoromethyl)phenyl)picolinamido)propanoic acid] gave a pKi of 6.55.

`Cc1cc(NCc2c(-c3ccc(C(=O)NCCC(=O)O)nc3)cc(C(F)(F)F)cc2C(F)(F)F)ccc1-c1ccc(Cl)cc1` [Compound 86, 3-(5-(2-(((4′-chloro-2-methyl-[1,1′-biphenyl]-4-yl)amino)methyl)-3,5-bis(trifluoromethyl)phenyl)picolinamido)propanoic acid] showed a pKi in test [2] of 7.46.

In test [2], `COc1cc(C(F)(F)F)cc(-c2ccc(C(=O)NCCC(=O)O)nc2)c1CNc1ccc(-c2ccc(C(F)(F)F)cc2)c(Cl)c1` [Compound 159, 3-(5-(2-(((2-chloro-4′-(trifluoromethyl)-[1,1′-biphenyl]-4-yl)amino)methyl)-3-methoxy-5-(trifluoromethyl)phenyl)picolinamido)propanoic acid] gave a pKi of 7.34.

In test [2], `Cc1cc(C(F)(F)F)ccc1-c1ccc(NCc2c(C)cc(C(F)(F)F)cc2-c2ccc(C(=O)NCCC(=O)O)nc2)cc1Cl` [Compound 166, 3-(5-(2-(((2-chloro-2′-methyl-4′-(trifluoromethyl)-[1,1′-biphenyl]-4-yl)amino)methyl)-3-methyl-5-(trifluoromethyl)phenyl)picolinamido)propanoic acid] had a pKi of 8.09.

Compound `N#Cc1cc(NCc2ccc(Cl)cc2-c2ccc(C(=O)NCCC(=O)O)nc2)ccc1-c1ccc(F)c(C(F)(F)F)c1` [Compound 100, 3-(5-(5-chloro-2-(((2-cyano-4′-fluoro-3′-(trifluoromethyl)-[1,1′-biphenyl]-4-yl)amino)methyl)phenyl)picolinamido)propanoic acid] had a negative logarithm of the Ki (pKi) in test [2] of 6.87.

Turning to `O=C(O)CCNC(=O)c1ccc(-c2cc(C(F)(F)F)ccc2CNc2ccc(-c3ccc(C(F)(F)F)cc3Cl)c(C(F)(F)F)c2)cn1` [Compound 128, 3-(5-(2-(((2′-chloro-2,4′-bis(trifluoromethyl)-[1,1′-biphenyl]-4-yl)amino)methyl)-5-(trifluoromethyl)phenyl)picolinamido)propanoic acid], in test [2], the pKi was 7.34.

In test [2], `COc1ccc(CNc2ccc(-c3ccc(Cl)cc3Cl)cc2)c(-c2ccc(C(=O)NCCC(=O)O)nc2)c1` [Compound 46, 3-(5-(2-(((2′,4′-dichloro-[1,1′-biphenyl]-4-yl)amino)methyl)-5-methoxyphenyl)picolinamido)propanoic acid] gave a pKi of less than 4.70.

Consider `O=C(O)CCNC(=O)c1ccc(-c2cc(C(F)(F)F)cc(C(F)(F)F)c2CNc2ccc(-c3c(Cl)cccc3Cl)cc2)cn1` [Compound 85, 3-(5-(2-(((2′,6′-dichloro-[1,1′-biphenyl]-4-yl)amino)methyl)-3,5-bis(trifluoromethyl)phenyl)picolinamido)propanoic acid], for which the negative logarithm of the Ki (pKi) in test [2] was 7.49.

In the case of `Cc1cc(C(F)(F)F)cc(-c2ccc(C(=O)NCCC(=O)O)nc2)c1CNc1ccc(-c2ccc(C(F)(F)F)cc2)c(Cl)c1` [Compound 163], the negative logarithm of the Ki (pKi) in test [2] is 7.84.

`Cc1cc(Cl)ccc1-c1ccc(NCc2ccc(C(F)(F)F)cc2-c2ccc(C(=O)NCCC(=O)O)nc2)cc1C(F)(F)F` [Compound 119, 3-(5-(2-(((4′-chloro-2′-methyl-2-(trifluoromethyl)-[1,1′-biphenyl]-4-yl)amino)methyl)-5-(trifluoromethyl)phenyl)picolinamido)propanoic acid] had a pKi in test [2] of 7.22.

`O=C(O)CCNC(=O)c1ccc(-c2cc(C(F)(F)F)cc(C(F)(F)F)c2CNc2ccc(-c3cccc(Cl)c3Cl)cc2)cn1` [Compound 84, 3-(5-(2-(((2′,3′-dichloro-[1,1′-biphenyl]-4-yl)amino)methyl)-3,5-bis(trifluoromethyl)phenyl)picolinamido)propanoic acid] had a pKi in test [2] of 7.44.

In turn, `Cc1cc(Cl)ccc1-c1ccc(NCc2c(-c3ccc(C(=O)NCCC(=O)O)nc3)cc(C(F)(F)F)cc2C2CC2)cc1Cl` [Compound 178, 3-(5-(3-cyclopropyl-2-(((2,4′-dichloro-2′-methyl-[1,1′-biphenyl]-4-yl)amino)methyl)-5-(trifluoromethyl)phenyl)picolinamido)propanoic acid] showed a pKi in test [2] of 8.20.

As to `COc1cc(C(F)(F)F)cc(-c2ccc(C(=O)NCCC(=O)O)nc2)c1CNc1ccc(-c2ccc(C(F)(F)F)cc2Cl)cc1` [Compound 161, 3-(5-(2-(((2′-chloro-4′-(trifluoromethyl)-[1,1′-biphenyl]-4-yl)amino)methyl)-3-methoxy-5-(trifluoromethyl)phenyl)picolinamido)propanoic acid], the pKi in test [2] is 7.41.

In test [2], `COc1ccc(CNc2ccc(-c3ccc(OC(F)(F)F)cc3)cc2)c(-c2ccc(C(=O)NCCC(=O)O)nc2)c1` [Compound 48, 3-(5-(5-methoxy-2-(((4′-(trifluoromethoxy)-[1,1′-biphenyl]-4-yl)amino)methyl)phenyl)picolinamido)propanoic acid] showed a pKi of less than 4.70.
